What was measured:
Adenosine receptor A1 = biological target: T1, Adenosine receptor A1 (Rattus norvegicus, UniProt P25099); test: Binding affinity for Adenosine A1 receptor by inhibition of [3H]PIA binding to whole rat brain membranes; format: cell membranes, Membrane
T1 sequence (P25099 whole entry): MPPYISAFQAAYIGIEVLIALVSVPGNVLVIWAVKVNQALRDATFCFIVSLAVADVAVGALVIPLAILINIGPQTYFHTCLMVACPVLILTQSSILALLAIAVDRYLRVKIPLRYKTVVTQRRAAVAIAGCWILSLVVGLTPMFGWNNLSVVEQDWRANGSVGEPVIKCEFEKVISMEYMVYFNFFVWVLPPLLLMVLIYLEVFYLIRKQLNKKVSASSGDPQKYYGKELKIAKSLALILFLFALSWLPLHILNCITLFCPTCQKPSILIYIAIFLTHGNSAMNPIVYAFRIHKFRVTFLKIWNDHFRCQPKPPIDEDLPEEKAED

Adenosine receptor A2a [1] = biological target: T2, Adenosine receptor A2a (Rattus norvegicus, UniProt P30543); test: Binding affinity towards Adenosine A2a receptor by inhibition of [3H]CGS-21680 binding to rat brain striatum membranes; format: cell membranes, Membrane
[2] = biological target: Adenosine receptors; A1 & A2a (Rattus norvegicus) (UniProt P25099+P30543); test: Ratio of binding affinities for adenosine receptor A2a and adenosine receptor A1; format: protein assay
Adenosine receptor A2a [3] = biological target: T2, Adenosine receptor A2a; test: Inhibitory activity against Adenosine A2a receptor binding site

T2 sequence (P30543 whole entry): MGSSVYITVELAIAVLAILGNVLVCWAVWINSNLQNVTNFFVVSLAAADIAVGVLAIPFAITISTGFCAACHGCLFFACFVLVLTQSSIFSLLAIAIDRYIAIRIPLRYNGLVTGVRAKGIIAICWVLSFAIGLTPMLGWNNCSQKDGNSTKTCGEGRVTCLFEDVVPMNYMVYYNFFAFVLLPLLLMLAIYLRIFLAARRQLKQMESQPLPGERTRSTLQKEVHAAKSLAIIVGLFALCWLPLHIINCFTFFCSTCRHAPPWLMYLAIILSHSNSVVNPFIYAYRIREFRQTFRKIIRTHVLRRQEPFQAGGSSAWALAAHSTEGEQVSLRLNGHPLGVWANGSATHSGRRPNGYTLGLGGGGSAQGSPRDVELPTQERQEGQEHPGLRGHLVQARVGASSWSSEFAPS
Chain of Adenosine receptors; A1 & A2a (Rattus norvegicus) (P30543 whole entry, looked up, one chain of several): as the sequence (P30543 whole entry) above

Ki (Adenosine receptor A1) [µM] | Ki (Adenosine receptor A2a [1]) [µM] | Ratio [2] | IC50 (Adenosine receptor A2a [3]) [µM] | Compound
0.0285 | 0.0449 | 1.6 | – | NC(=O)CSc1nc(N)c2cnn(-c3ccccc3)c2n1
0.0121 | 0.131 | 10.8 | – | CCNC(=O)CSc1nc(N)c2cnn(-c3ccccc3)c2n1
– | – | – | 19.2 | CCCCn1c(=O)[nH]c2c(cnn2-c2cccc(Cl)c2)c1=N

The remaining lines, values behind:

Compound | Ki (Adenosine receptor A1) [µM] | Ki (Adenosine receptor A2a [1]) [µM] | Ratio [2] | IC50 (Adenosine receptor A2a [3]) [µM]
CC(Sc1nc(SC(C)C(N)=O)c2cnn(-c3ccccc3)c2n1)C(N)=O (stereo not given) | 0.229 | 0.146 | – | –
CCNC(=O)CCSc1nc(N)c2cnn(-c3ccccc3)c2n1 | 0.551 | 1.28 | 2.3 | –
NC(=O)CCSc1nc(N)c2cnn(-c3ccccc3)c2n1 | 0.428 | 0.101 | 0.24 | –

Source: ChEMBL document CHEMBL1159189, “Pyrazolo[3,4-d]pyrimidines; adenosine receptor selectivity” (Bioorg Med Chem Lett, 1995)
